Experimental data taken from patent US10829481B2, “Benzimidazole derivatives as modulators of ROR-gamma” (Vitae Pharmaceuticals, LLC, priority 2016, dated 2020).
pIC50, pKi: −log10 of the molar value.

Columns and labels:
[1] = molecular target: full-length RORγt in Jurkat cells (Homo sapiens (Human), UniProt P51449); experiment: RORγt 5×RORE Assay in Jurkat Cells (Assay 2); format: cell-based; conditions: 5×RORE Nanoluc luciferase reporter
[2] = molecular target: recombinant RORγ Ligand Binding Domain (LBD) protein (Homo sapiens (Human), UniProt P51449); experiment: Radio-Ligand RORγ Binding Assay (Assay 1); conditions: competition with 25-hydroxy [26,27-3H]-cholesterol, SPA
recombinant RORγ Ligand Binding Domain (LBD) protein, sequence (P51449 269-508): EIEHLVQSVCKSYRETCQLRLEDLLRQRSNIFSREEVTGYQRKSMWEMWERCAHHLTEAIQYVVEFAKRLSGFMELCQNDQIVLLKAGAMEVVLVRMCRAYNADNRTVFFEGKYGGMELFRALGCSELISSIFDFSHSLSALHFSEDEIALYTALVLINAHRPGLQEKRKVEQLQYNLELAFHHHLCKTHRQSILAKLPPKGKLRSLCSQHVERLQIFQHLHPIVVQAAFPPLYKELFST
Procedure, shortened: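 Scintillation proximity competition against 25-hydroxy [26,27-^3H]-cholesterol (8.6 nM solution) for 6×His-GST-tagged RORγ LBD (24 nM solution) in HEPES pH 7.4 with CHAPS, β-octylglucopyranoside and DTT; semi-log compound dilutions, ~1 h total at rt with poly-Lys YSi beads. IC50 from four-parameter fit; Ki derived from [RL] and radioligand KD.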

full-length RORγt in Jurkat cells, sequence (P51449 other isoform, or with tags, fused parts or gaps): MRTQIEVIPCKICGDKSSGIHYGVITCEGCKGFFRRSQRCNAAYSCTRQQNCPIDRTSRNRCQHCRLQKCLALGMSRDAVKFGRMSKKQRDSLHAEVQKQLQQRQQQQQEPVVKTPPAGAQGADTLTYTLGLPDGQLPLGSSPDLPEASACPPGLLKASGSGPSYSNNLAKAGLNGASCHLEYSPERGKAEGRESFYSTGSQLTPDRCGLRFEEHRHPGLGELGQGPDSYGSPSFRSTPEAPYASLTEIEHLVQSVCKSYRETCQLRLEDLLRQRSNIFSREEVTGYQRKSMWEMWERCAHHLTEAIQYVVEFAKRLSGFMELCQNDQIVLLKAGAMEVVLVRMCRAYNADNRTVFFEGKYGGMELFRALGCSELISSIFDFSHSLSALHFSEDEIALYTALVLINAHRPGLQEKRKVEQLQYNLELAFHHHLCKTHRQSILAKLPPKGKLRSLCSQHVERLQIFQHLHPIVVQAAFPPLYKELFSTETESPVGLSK

Row | Compound | pIC50 [1] | pKi [2]
1 | CNC(=O)CS(=O)(=O)N1CCC(CNC(=O)c2ccc3c(c2)nc(C2CC2)n3Cc2cccc3c2OC(F)(F)O3)CC1 [I-79, 2-cyclopropyl-1-((2,2-difluorobenzo[d][1,3]dioxol-4-yl)methyl)-N-((1-((2-(methylamino)-2-oxoethyl)sulfonyl)piperidin-4-yl)methyl)-1H-benzo[d]imidazole-5-carboxamide] | 6.00 to 7.00 | > 7.00
2 | CCS(=O)(=O)c1ccc([C@@H](CO)NC(=O)c2ccc3c(c2)nc(C(F)(F)F)n3Cc2cccc3c2OC(F)(F)O3)cc1 [I-11.2, (S)-1-((2,2-difluorobenzo[d][1,3]dioxol-4-yl)methyl)-N-(1-(4-(ethylsulfonyl)phenyl)-2-hydroxyethyl)-2-(trifluoromethyl)-1H-benzo[d]imidazole-5-carboxamide] | > 7.00 | > 7.00
3 | CCS(=O)(=O)c1ccc(CNC(=O)c2ccc3c(c2)nc(C(F)(F)F)n3Cc2ccc(OC(F)(F)F)cc2)cc1 [I-84, N-(4-(ethylsulfonyl)benzyl)-1-(4-(trifluoromethoxy)benzyl)-2-(trifluoromethyl)-1H-benzo[d]imidazole-5-carboxamide] | 6.00 to 7.00 | > 7.00
4 | CCS(=O)(=O)c1ccc(CNC(=O)c2ccc3c(c2)nc(C2CC2)n3Cc2ccc(OC(F)(F)F)cc2)cc1 [I-104, 2-cyclopropyl-N-(4-(ethylsulfonyl)benzyl)-1-(4-(trifluoromethoxy)benzyl)-1H-benzo[d]imidazole-5-carboxamide] | < 6.00 | > 7.00
5 | CCS(=O)(=O)c1ccc(CNC(=O)c2ccc3c(c2)nc(C(F)(F)F)n3Cc2ccc(C#N)cc2)cc1 [I-85, 1-(4-cyanobenzyl)-N-(4-(ethylsulfonyl)benzyl)-2-(trifluoromethyl)-1H-benzo[d]imidazole-5-carboxamide] | < 6.00 | > 7.00
6 | CS(=O)(=O)N1CCC(CC(=O)Nc2ccc3c(c2)nc(C(F)(F)F)n3Cc2cccc3c2OC(F)(F)O3)CC1 [I-10, N-(1-((2,2-difluorobenzo[d][1,3]dioxol-4-yl)methyl)-2-(trifluoromethyl)-1H-benzo[d]imidazol-5-yl)-2-(1-(methylsulfonyl)piperidin-4-yl)acetamide] | < 6.00 | > 7.00
7 | CCS(=O)(=O)c1ccc(CNC(=O)c2ccc3c(c2)nc(C(F)(F)F)n3Cc2cccc3nn(C)cc23)cc1 [I-143, N-(4-(ethylsulfonyl)benzyl)-1-((2-methyl-2H-indazol-4-yl)methyl)-2-(trifluoromethyl)-1H-benzo[d]imidazole-5-carboxamide] | 6.00 to 7.00 | > 7.00
8 | CCCS(=O)(=O)c1ccc(CNC(=O)c2ccc3c(c2)nc(C(F)(F)F)n3Cc2cccc3c2OC(F)(F)O3)cc1 [I-52, 1-((2,2-difluorobenzo[d][1,3]dioxol-4-yl)methyl)-N-(4-(propylsulfonyl)benzyl)-2-(trifluoromethyl)-1H-benzo[d]imidazole-5-carboxamide] | > 7.00 | > 7.00

Next, values leading:

Row | pIC50 [1] | pKi [2] | Compound
9 | > 7.00 | > 7.00 | CS(=O)(=O)c1ccc(CNC(=O)c2ccc3c(c2)nc(C(F)F)n3Cc2cccc3c2OC(F)(F)O3)cc1 [I-50, 1-((2,2-difluorobenzo[d][1,3]dioxol-4-yl)methyl)-2-(difluoromethyl)-N-(4-(methylsulfonyl)benzyl)-1H-benzo[d]imidazole-5-carboxamide]
10 | > 7.00 | > 7.00 | CCS(=O)(=O)c1ccc(CNC(=O)c2ccc3c(c2)nc(C2(F)CC2)n3Cc2cccc3c2OC(F)(F)O3)nc1 [I-67, 1-((2,2-difluorobenzo[d][1,3]dioxol-4-yl)methyl)-N-((5-(ethylsulfonyl)pyridin-2-yl)methyl)-2-(1-fluorocyclopropyl)-1H-benzo[d]imidazole-5-carboxamide]
11 | > 7.00 | > 7.00 | CS(=O)(=O)c1ccc(CC(=O)Nc2ccc3c(c2)nc(C(F)(F)F)n3Cc2cccc3c2OC(F)(F)O3)cc1 [I-2, N-(1-((2,2-difluorobenzo[d][1,3]dioxol-4-yl)methyl)-2-(trifluoromethyl)-1H-benzo[d]imidazol-5-yl)-2-(4-(methylsulfonyl)phenyl)acetamide]
12 | > 7.00 | > 7.00 | CNC(=O)CS(=O)(=O)c1ccc(CNC(=O)c2ccc3c(c2)nc(C(F)(F)F)n3Cc2cccc3c2OC(F)(F)O3)cc1 [I-169, 1-((2,2-difluorobenzo[d][1,3]dioxol-4-yl)methyl)-N-(4-((2-(methylamino)-2-oxoethyl)sulfonyl)benzyl)-2-(trifluoromethyl)-1H-benzo[d]imidazole-5-carboxamide]
13 | > 7.00 | > 7.00 | O=C(NCc1ccc(S(=O)(=O)CCO)cc1)c1ccc2c(c1)nc(C1CC1)n2Cc1cccc2c1OC(F)(F)O2 [I-47, 2-cyclopropyl-1-((2,2-difluorobenzo[d][1,3]dioxol-4-yl)methyl)-N-(4-((2-hydroxyethyl)sulfonyl)benzyl)-1H-benzo[d]imidazole-5-carboxamide]
14 | > 7.00 | > 7.00 | CCS(=O)(=O)c1ccc(CNC(=O)c2ccc3c(c2)nc(C2CC2)n3Cc2cccc(OC)c2OC)cc1 [I-119, 2-cyclopropyl-1-(2,3-dimethoxybenzyl)-N-(4-(ethylsulfonyl)benzyl)-1H-benzo[d]imidazole-5-carboxamide]
15 | > 7.00 | > 7.00 | CCc1nc2cc(C(=O)NCc3ccc(S(=O)(=O)CC)cc3)ccc2n1Cc1cccc2c1OC(F)(F)O2 [I-29, 1-((2,2-difluorobenzo[d][1,3]dioxol-4-yl)methyl)-2-ethyl-N-(4-(ethylsulfonyl)benzyl)-1H-benzo[d]imidazole-5-carboxamide]
16 | > 7.00 | > 7.00 | CS(=O)(=O)c1ccc(CNC(=O)c2ccc3c(c2)nc(C(F)(F)F)n3Cc2cccc3c2OC(F)(F)O3)nc1 [I-70, 1-((2,2-difluorobenzo[d][1,3]dioxol-4-yl)methyl)-N-((5-(methylsulfonyl)pyridin-2-yl)methyl)-2-(trifluoromethyl)-1H-benzo[d]imidazole-5-carboxamide]
17 | > 7.00 | > 7.00 | CCS(=O)(=O)c1ccc(CNC(=O)c2ccc3c(c2)nc(C(C)(F)F)n3Cc2cccc3c2OC(F)(F)O3)nc1 [I-66, 1-((2,2-difluorobenzo[d][1,3]dioxol-4-yl)methyl)-2-(1,1-difluoroethyl)-N-((5-(ethylsulfonyl)pyridin-2-yl)methyl)-1H-benzo[d]imidazole-5-carboxamide]
18 | > 7.00 | > 7.00 | CNS(=O)(=O)c1ccc(CNC(=O)c2ccc3c(c2)nc(C2(F)CC2)n3Cc2cccc3c2OC(F)(F)O3)cc1 [I-42, 1-((2,2-difluorobenzo[d][1,3]dioxol-4-yl)methyl)-2-(1-fluorocyclopropyl)-N-(4-(N-methylsulfamoyl)benzyl)-1H-benzo[d]imidazole-5-carboxamide]
